Experimental data: ChEMBL document CHEMBL1121413, “Synthesis, beta-adrenergic activity, and platelet antiaggregatory activity of a positional isomer of trimetoquinol: 1-(2',4',5'-trimethoxybenzyl)-6,7-dihydroxy-1,2,3,4,-tetrahydroisoquinoline” (J Med Chem, 1980)

Key:
[1] = biological target: T1, Adrenergic receptor beta (Homo sapiens) (UniProt P08588+P07550+P13945); conditions: Cavia porcellus
Description: Tested for potent Beta adrenergic receptor action in the atria of guinea pig

[2] = biological target: T1, Adrenergic receptor beta (Homo sapiens); conditions: Cavia porcellus; remark: listed apart in the source

With COc1cc(CC2NCCc3cc(O)c(O)cc32)cc(OC)c1OC (configuration not stated) the pD2 [1] was 8.8 and the pD2 [2] was 7.8.
